Experimental data published in US20100204150A1, “USE OF A PEPTIDE AS A THERAPEUTIC AGENT” (priority 2007, published 2010).
Where no end group is shown, it is not given here. [ ]: non-standard residue; d: D form.

Tested on: drug-resistant Mycobacterium tuberculosis
Assay: Mycobacterium tuberculosis assay
Format: cell-based
Conditions: 10 micrograms per ml; seven days; strain resistant to PAS, streptomycin and INH; combination 0.95:1.05 mole and all ratios 1:100 to 100:1

| Substance | inhibition of the growth of Mycobacterium tuberculosis [%] |
| --- | --- |
| HPFHL[dL]VY-OH [Peptide 1] | 100 |
| Ac-Arg-Phe-Met-Trp-Met-Arg-NH2 (Ac-RFMWMR-NH2) [Peptide 2] | 100 |
